{"source": "patent US20140193846A1", "about": "“NOVEL APOC-I ISOFORMS AND THEIR USE AS BIOMARKERS AND RISK FACTORS OF ATHEROSCLEROTIC DISEASE” (SCOTT & WHITE HEALTHCARE, priority 2011, published 2014)", "key": {"[1]": {"test_system": "Human aortic endothelial cells (HAECs)", "experiment": "Nitric oxide (NO) release from HAECs incubated with HDL sub-fractions (DAF fluorescence)", "assay_type": "cell-based", "settings": "HAECs pretreated, then incubated with apoptotic HDL2", "method": "Human aortic endothelial cells (HAECs) were incubated with HDL sub-fractions for 12 h from a subject with apoptotic HDL2 (and CAD) and a subject with non-apoptotic HDL2 (without CAD). The cells were then stained with 4′5′-diamino flourescein 2-diacetate (DAF) (Invitrogen/Molecular Probes, CA), a fluorescent probe that allows for real-time detection of NO. Following incubation cells were washed with phosphate buffered saline (PBS) to remove unbound dye and mounted on a drop of 10% glycerol in PBS and photographed by fluorescence microscopy."}, "[2]": {"test_system": "ICAM-1 expression by HAECs", "experiment": "ICAM-1 expression by HAECs exposed to lipoprotein fractions", "assay_type": "cell-based, human", "settings": "HAECs pre-treated with inhibitor"}, "[3]": {"test_system": "ASMC apoptosis mediated by HDL2 from subject 10", "experiment": "Effect of N-SMase inhibitor on HDL2-induced ASMC apoptosis", "assay_type": "cell-based, human", "settings": "GW 4869 20 umol/L; for effect of inhibitor on HDL2-induced ASMC apoptosis (words): HDL2 from subject 10", "method": "The same procedure described in detail by Kolmakova et al., Arterioscler. Thromb. Vasc. Biol., 24:264-269 (2004) was used. In brief, 10^3 human ASMC (Cambrex, Walkersville, Md.), were grown on sterilized glass cover slips in 6-well trays and treated with 2.5 μL of the various lipoprotein fractions per ml of medium. After 24 hour incubation, the medium was removed and cells were fixed and stained. The average ApoA-I concentration in the HDL2 and HDL3 fractions was ˜25 mg/dL and ˜40 mg/dL, respectively.\nThe effect of GW 4869 (20 umol/L), a noncompetitive inhibitor of N-SMase (Luberto C. et al., J. Biol Chem., 277(43):41128-41139 (2002)), on ASMC apoptosis mediated by HDL2 from subject 10 was studied and the results are shown in FIG. 9. […] The effect of HDL2 on apoptosis was also dose-dependent: when only 1 μl of HDL2 was used a 20.1% apoptosis of ASMC resulted as compared to ˜50% apoptosis when 2.5 μl HDL2 from the same subject was used."}, "[4]": {"molecular_target": "T1, lecithin-cholesterol acyl transferase (LCAT) (Homo sapiens, UniProt P04180)", "T1 sequence (P04180 25-440)": "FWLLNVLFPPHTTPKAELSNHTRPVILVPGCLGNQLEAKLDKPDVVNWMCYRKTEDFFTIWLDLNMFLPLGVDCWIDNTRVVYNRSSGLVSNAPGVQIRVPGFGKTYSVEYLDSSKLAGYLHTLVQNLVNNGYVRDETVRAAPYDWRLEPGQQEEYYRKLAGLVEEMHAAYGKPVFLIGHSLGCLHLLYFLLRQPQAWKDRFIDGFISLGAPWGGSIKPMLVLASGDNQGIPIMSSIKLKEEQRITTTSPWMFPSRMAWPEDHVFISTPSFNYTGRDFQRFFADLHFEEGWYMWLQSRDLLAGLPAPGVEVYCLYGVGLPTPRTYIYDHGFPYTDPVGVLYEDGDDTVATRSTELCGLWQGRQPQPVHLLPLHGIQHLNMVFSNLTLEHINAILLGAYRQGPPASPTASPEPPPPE", "settings": "% of the activity demonstrated by apoA-I; cited from earlier work"}}, "note": "Entries after “also recorded” stand apart in the source; their conditions may differ."}
{"molecule": "S=C(S)N1CCCC1", "note": "[PDTC, Pyrrolidine dithiocarbamate]", "values": [{"measurement": "effect of pretreatment on HDL2-induced NO release from HAECs", "setting": "[1]", "result": "markedly reduced NO release; also recorded: production of NO was blocked"}, {"measurement": "effect of pre-treating HAECs on HDL2-increased ICAM-1 expression", "setting": "[2]", "result": "attenuated"}]}
{"molecule": "O=C(/C=C/c1ccc(/C=C/C(=O)Nc2ccc(C3=NCCN3)cc2)cc1)Nc1ccc(C2=NCCN2)cc1", "note": "[GW4869]", "values": [{"measurement": "number of apoptotic cells with HDL2 plus inhibitor", "setting": "[3]; 1 μL HDL2 from subject 10, 20.1% without inhibitor", "result": 1.19, "unit": "%"}, {"measurement": "effect of inhibitor on HDL2-induced ASMC apoptosis (words)", "setting": "[3]", "result": "inhibits apoptosis"}, {"measurement": "effect of inhibitor on HDL2-induced ASMC apoptosis (words)", "setting": "[3]; listed as GW 4869", "result": "almost completely prevented HDL2-induced apoptosis"}]}
{"molecule": "ApoC-I: mature 57 amino acid apolipoprotein C-I protein set forth in SEQ ID NO:6 (TPDVSSALDKLKEFGNTLEDKARELIBRINKQSELSAKMREWFSETFQKVKELKIDS; listed as Homo sapiens)", "values": [{"measurement": "LCAT stimulation, activity relative to apoA-I", "setting": "[4]", "result": "approximately 78%"}]}
{"molecule": "CNC(=N)NCCC[C@H](N)C(=O)O", "note": "[NMLA, NG monomethyl-L-arginine]", "values": [{"measurement": "effect of pre-treating HAECs on HDL2-increased ICAM-1 expression", "setting": "[2]", "result": "attenuated"}]}
